Literature values as cited in PubChem BioAssay AID1259409 (Chemical Carcinogenesis Research Information System (CCRIS), 2018).

System: rodent chemically induced tumor inhibition, incidence and multiplicity
Assay: CCRIS tumor inhibitor studies

Structure (SMILES): Cc1cc(C(C)(C)C)c(O)c(C(C)(C)C)c1
- tumour outcome (control, treated, inhibition, significance) (Carcinogen: 2-ACETYLAMINOFLUORENE, 53-96-3, Dose [Inhibitor]: 0, 3000 PPM IN DIET CONCURRENTLY WITH CARCINOGEN FOR STUDY DURATION (STUDY DURATION: 76 WK), Route [Inhibitor]: ORAL, Species: RAT, Strain/Sex: F344/MALE, Target Tissue: Type of Lesion: LIVER: HEPATOCELLULAR TUMOR, Dose [Carcinogen]: 50 PPM IN DIET FOR 76 WK): 20/20 (100%), 18/18 (100%), 0%, not calculated
- outcome (Carcinogen: 2-ACETYLAMINOFLUORENE, 53-96-3, Dose [Inhibitor]: 0, 6000 PPM IN DIET CONCURRENTLY WITH CARCINOGEN FOR STUDY DURATION (STUDY DURATION: 76 WK), Route [Inhibitor]: ORAL, Species: RAT, Strain/Sex: F344/MALE, Target Tissue: Type of Lesion: LIVER: HEPATOCELLULAR CARCINOMA, Dose [Carcinogen]: 50 PPM IN DIET FOR 76 WK): 4.8, 0.7, 85%, p<0.05
- tumour outcome (control, treated, inhibition, significance) (Carcinogen: 2-ACETYLAMINOFLUORENE, 53-96-3, Dose [Inhibitor]: 0, 6000 PPM IN DIET CONCURRENTLY WITH CARCINOGEN FOR STUDY DURATION (STUDY DURATION: 76 WK), Route [Inhibitor]: ORAL, Species: RAT, Strain/Sex: F344/MALE, Target Tissue: Type of Lesion: LIVER: HEPATOCELLULAR TUMOR, Dose [Carcinogen]: 50 PPM IN DIET FOR 76 WK): 20/20 (100%), 19/19 (100%), 0%, not calculated
- tumour outcome (control, treated, inhibition, significance) (Carcinogen: 7,12-DIMETHYLBENZ(A)ANTHRACENE, 57-97-6, Dose [Inhibitor]: 0.3% IN DIET FROM WEANING ONWARD (STUDY DURATION: 6 MO AFTER CARCINOGEN ADMINISTRATION), Route [Inhibitor]: ORAL, Species: RAT, Strain/Sex: SPRAGUE-DAWLEY/FEMALE, Target Tissue: Type of Lesion: MAMMARY GLAND: ADENOCARCINOMA, Dose [Carcinogen]: 10 MG/RAT IN 1 ML STRIPPED CORN OIL, SINGLE DOSE ON D 50 FOLLOWING 24 HR FASTING PERIOD, Promoter: NONE USED): 100%, 55%, 45%, not calculated
- tumour outcome (control, treated, inhibition, significance) (Carcinogen: 7,12-DIMETHYLBENZ(A)ANTHRACENE, 57-97-6, Dose [Inhibitor]: 2500 MG/KG IN DIET STARTING 1 WK AFTER CARCINOGEN AND CONTINUING FOR 30 WK (STUDY DURATION: 30 WK), Route [Inhibitor]: ORAL, Species: RAT, Strain/Sex: SPRAGUE-DAWLEY/FEMALE, Target Tissue: Type of Lesion: MAMMARY GLAND: TUMOR, Dose [Carcinogen]: 8 MG IN 1 ML SESAME OIL ADMINISTERED ONCE, Promoter: NONE USED): 88%, 68%, 23%, not significant
- tumour outcome (control, treated, inhibition, significance) (Carcinogen: 7,12-DIMETHYLBENZ(A)ANTHRACENE, 57-97-6, Dose [Inhibitor]: 5000 MG/KG IN DIET STARTING 1 WK AFTER CARCINOGEN AND CONTINUING FOR 30 WK (STUDY DURATION: 30 WK), Route [Inhibitor]: ORAL, Species: RAT, Strain/Sex: SPRAGUE-DAWLEY/FEMALE, Target Tissue: Type of Lesion: MAMMARY GLAND: TUMOR, Dose [Carcinogen]: 8 MG IN 1 ML SESAME OIL ADMINISTERED ONCE, Promoter: NONE USED): 88%, 72%, 18%, not significant
- tumour outcome (control, treated, inhibition, significance) (Carcinogen: 7,12-DIMETHYLBENZ(A)ANTHRACENE, 57-97-6, Dose [Inhibitor]: 5000 MG/KG IN DIET STARTING 2 WK BEFORE UNTIL 1 WK AFTER CARCINOGEN ADMINISTRATION (STUDY DURATION: 32 WK), Route [Inhibitor]: ORAL, Species: RAT, Strain/Sex: SPRAGUE-DAWLEY/FEMALE, Target Tissue: Type of Lesion: MAMMARY GLAND: TUMOR, Dose [Carcinogen]: 8 MG IN 1 ML SESAME OIL ADMINISTERED ONCE, Promoter: NONE USED): 88%, 52%, 41%, p<0.01
- tumour outcome (control, treated, inhibition, significance) (Carcinogen: 7,12-DIMETHYLBENZ[A]ANTHRACENE, 57-97-6, Dose [Inhibitor]: 0, 200 MG/KG BW/D FOR 3 WK BEGINNING 2 WK PRIOR TO CARCINOGEN DOSE (STUDY DURATION: 24 WK), Route [Inhibitor]: INTRAPERITONEAL, Species: RAT, Strain/Sex: SPRAGUE-DAWLEY/FEMALE, Target Tissue: Type of Lesion: MAMMARY GLAND: TUMOR, Dose [Carcinogen]: 33.3 MG/KG BW IN 0.25 ML CORN OIL ONCE AT 50 D OF AGE, Promoter: NONE USED): 91%, 56%, 38%, not calculated
- tumour outcome (control, treated, inhibition, significance) (Carcinogen: 7,12-DIMETHYLBENZ[A]ANTHRACENE, 57-97-6, Dose [Inhibitor]: 0.3% IN DIET, DAILY BEFORE, SIMULTANEOUS WITH, AND THROUGHOUT THE EXPERIMENT, HIGH POLYUNSATURATED FAT DIET (STUDY DURAT, Route [Inhibitor]: ORAL, Species: RAT, Strain/Sex: SPRAGUE-DAWLEY/FEMALE, Target Tissue: Type of Lesion: MAMMARY GLAND: PARENCHYMAL CARCINOMA, Dose [Carcinogen]: 10 MG IN 1 ML CORN OIL AT 50 D OF AGE ONCE, Promoter: NONE USED): 30/30 (100%), 16/30 (53%), 47%, not calculated
- tumour outcome (control, treated, inhibition, significance) (Carcinogen: 7,12-DIMETHYLBENZ[A]ANTHRACENE, 57-97-6, Dose [Inhibitor]: 0.3% IN DIET, DAILY BEFORE, SIMULTANEOUS WITH, AND THROUGHOUT THE EXPERIMENT, HIGH SATURATED FAT DIET (STUDY DURATION: 3, Route [Inhibitor]: ORAL, Species: RAT, Strain/Sex: SPRAGUE-DAWLEY/FEMALE, Target Tissue: Type of Lesion: MAMMARY GLAND: PARENCHYMAL CARCINOMA, Dose [Carcinogen]: 10 MG IN 1 ML CORN OIL AT 50 D OF AGE ONCE, Promoter: NONE USED): 23/30 (77%), 9/30 (30%), 60%, not calculated
- tumour outcome (control, treated, inhibition, significance) (Carcinogen: 7,12-DIMETHYLBENZ[A]ANTHRACENE, 57-97-6, Dose [Inhibitor]: 0.3% IN DIET, DAILY BEFORE, SIMULTANEOUS WITH, AND THROUGHOUT THE EXPERIMENT, LOW FAT DIET (STUDY DURATION: 32 WK), Route [Inhibitor]: ORAL, Species: RAT, Strain/Sex: SPRAGUE-DAWLEY/FEMALE, Target Tissue: Type of Lesion: MAMMARY GLAND: PARENCHYMAL CARCINOMA, Dose [Carcinogen]: 10 MG IN 1 ML CORN OIL AT 50 D OF AGE ONCE, Promoter: NONE USED): 13/30 (43%), 10/30 (33%), 23%, not calculated
- tumour outcome (control, treated, inhibition, significance) (Carcinogen: 7,12-DIMETHYLBENZ[A]ANTHRACENE, 57-97-6, Dose [Inhibitor]: 0.3% IN HIGH POLYUNSATURATED FAT DIET DAILY STARTING 29 D BEFORE CARCINOGEN TREATMENT AND CONTINUING FOR THE DURATION OF, Route [Inhibitor]: ORAL, Species: RAT, Strain/Sex: SPRAGUE-DAWLEY/FEMALE, Target Tissue: Type of Lesion: MAMMARY GLAND: ADENOCARCINOMA, Dose [Carcinogen]: 10 MG IN 1 ML STRIPPED CORN OIL ONCE AT AGE 50 D, Promoter: NONE USED): 100%, 55%, 45%, not calculated
- tumour outcome (control, treated, inhibition, significance) (Carcinogen: 7,12-DIMETHYLBENZ[A]ANTHRACENE, 57-97-6, Dose [Inhibitor]: 0.3% IN HIGH SATURATED FAT DIET DAILY STARTING 29 D BEFORE CARCINOGEN TREATMENT AND CONTINUING FOR THE DURATION OF THE S, Route [Inhibitor]: ORAL, Species: RAT, Strain/Sex: SPRAGUE-DAWLEY/FEMALE, Target Tissue: Type of Lesion: MAMMARY GLAND: ADENOCARCINOMA, Dose [Carcinogen]: 10 MG IN 1 ML STRIPPED CORN OIL ONCE AT AGE 50 D, Promoter: NONE USED): 65%, 35%, 46%, not calculated
- tumour outcome (control, treated, inhibition, significance) (Carcinogen: 7,12-DIMETHYLBENZ[A]ANTHRACENE, 57-97-6, Dose [Inhibitor]: 0.3% IN LOW FAT DIET DAILY STARTING 29 D BEFORE CARCINOGEN TREATMENT AND CONTINUING FOR THE DURATION OF THE STUDY (STUDY, Route [Inhibitor]: ORAL, Species: RAT, Strain/Sex: SPRAGUE-DAWLEY/FEMALE, Target Tissue: Type of Lesion: MAMMARY GLAND: ADENOCARCINOMA, Dose [Carcinogen]: 10 MG IN 1 ML STRIPPED CORN OIL ONCE AT AGE 50 D, Promoter: NONE USED): 35%, 25%, 29%, not calculated
- tumour outcome (control, treated, inhibition, significance) (Carcinogen: 7,12-DIMETHYLBENZ[A]ANTHRACENE, 57-97-6, Dose [Inhibitor]: 1 MG APPLIED ONCE 5 MIN BEFORE DMBA (STUDY DURATION 20 WK), Route [Inhibitor]: DERMAL, Species: MOUSE, Strain/Sex: CD-1/FEMALE, Target Tissue: Type of Lesion: SKIN: PAPILLOMA, Dose [Carcinogen]: 2.56 UG APPLIED ONCE 5 MIN AFTER INHIBITOR, Promoter: 12-O-TETRADECANOYLPHORBOL-13-ACETATE, 16561-29-8): 80%, 58%, 28%, not calculated
